Test results from publication PMC5843811, “^44Sc for labeling of DOTA- and NODAGA-functionalized peptides: preclinical in vitro and in vivo investigations” (EJNMMI Radiopharmacy and Chemistry, 2016).
Where two headings read alike, the source gives them in different places.

What was measured:
[1] = Biodistribution in U87MG tumor-bearing mice; type: in vivo; conditions: female, CD-1 nude (athymic nude), mouse, iv, total radioactivity, i.v. ~5 MBq (~1 nmol), mean ± SD; for tissue to tissue ratio at 0.5 h / tissue uptake at 0.5 h: 30 min p.i.; for tissue to tissue ratio at 2 h / tissue uptake at 2 h: 2 h p.i.; for tissue to tissue ratio at 5 h / tissue uptake at 5 h: 5 h p.i.
Procedure: Female athymic nude mice (CD-1 nude), age 5–6 weeks, were obtained from Charles River Laboratories, Sulzfeld, Germany. U87MG cells and AR42J-cells were suspended in PBS (5 × 10^6 cells in 100 μL) and subcutaneously inoculated on each shoulder. Two to three weeks later, when the tumor reached a size of about 300–500 mm^3, the mice were used for the in vivo studies.
Biodistribution studies were performed with U87MG tumor and AR42J tumor-bearing mice 2 weeks after tumor cell inoculation. ^44Sc- and ^68Ga-labeled peptides (~5 MBq, ~1 nmol per mouse) were intravenously injected in a volume of 100–200 μL. Mice were sacrificed at 30 min, 2 h and 5 h after injection (p.i.) of the ^44Sc-labeled peptides. Mice which were injected with ^68Ga-labeled peptides were sacrificed at 30 min and 2 h p.i. Selected tissues and organs were collected, weighed, and counted for radioactivity using a γ-counter (Wallac Wizard 1480, Perkin Elmer). The results were listed as a percentage of the injected activity per gram of tissue mass (% IA/g), using counts of a defined volume of the original injection solution counted at the same time. The data were analyzed for significance using a two-way ANOVA test (Graph Pad Prism 6 software, version 6.05). A p-value of < 0.05 was considered statistically significant.

[2] = tested on: U87MG tumor-bearing mice; assay: PET/CT imaging of U87MG tumor-bearing mice; type: in vivo; conditions: 3 h after i.v. injection of ~10 MBq (~1 nmol), one or two mice
Procedure: The energy window was set to 150–650 keV. […] All static PET scans lasted for 20 min.

[3] = U87MG tumor / blood, n=3, read-out: Tumor-to-blood ratio
[4] = U87MG tumor / kidneys, n=3, read-out: Tumor-to-kidney ratio
[5] = U87MG tumor / liver, n=3, read-out: Tumor-to-liver ratio
[6] = U87MG tumor, n=3, read-out: Biodistribution, U87MG Tumor
[7] = blood, 5 MBq per mouse, n=3, read-out: Biodistribution, Blood
[8] = bone, 5 MBq per mouse, n=3, read-out: Biodistribution, Bone
[9] = brain, 5 MBq per mouse, n=3, read-out: Biodistribution, Brain
[10] = heart, 5 MBq per mouse, n=3, read-out: Biodistribution, Heart
[11] = intestines, 5 MBq per mouse, n=3, read-out: Biodistribution, Intestines
[12] = kidneys, n=3, read-out: Biodistribution, Kidneys
[13] = liver, n=3, read-out: Biodistribution, Liver
[14] = lung, 5 MBq per mouse, n=3, read-out: Biodistribution, Lung
[15] = muscle, 5 MBq per mouse, n=3, read-out: Biodistribution, Muscle
[16] = pancreas, 5 MBq per mouse, n=3, read-out: Biodistribution, pancreas
[17] = skin, 5 MBq per mouse, n=3, read-out: Biodistribution, Skin
[18] = spleen, 5 MBq per mouse, n=3, read-out: Biodistribution, Spleen
[19] = stomach, 5 MBq per mouse, n=3, read-out: Biodistribution, Stomach

tissue to tissue ratio at 0.5 h [1, 3]: 4.82 ± 1.6
tissue to tissue ratio at 2 h [1, 3]: 40.1 ± 15.6
tissue to tissue ratio at 5 h [1, 3]: 47.2 ± 18
tissue to tissue ratio at 0.5 h [1, 4]: 1.16 ± 0.29
tissue to tissue ratio at 2 h [1, 4]: 1.77 ± 0.13
tissue to tissue ratio at 5 h [1, 4]: 1.82 ± 0.21
tissue to tissue ratio at 0.5 h [1, 5]: 0.99 ± 0.14
tissue to tissue ratio at 2 h [1, 5]: 0.61 ± 0.04
tissue to tissue ratio at 5 h [1, 5]: 2.9 ± 0.38
tissue uptake at 0.5 h [1, 6]: 4.88 ± 0.67 %ID/g
tissue uptake at 2 h [1, 6]: 2.99 ± 0.16 %ID/g
tissue uptake at 5 h [1, 6]: 3 ± 0.38 %ID/g
tissue uptake at 0.5 h [1, 7]: 1.1 ± 0.29 %ID/g
tissue uptake at 2 h [1, 7]: 0.08 ± 0.03 %ID/g
tissue uptake at 5 h [1, 7]: 0.07 ± 0.03 %ID/g
tissue uptake at 0.5 h [1, 8]: 1.17 ± 0.07 %ID/g
tissue uptake at 2 h [1, 8]: 0.56 ± 0.03 %ID/g
tissue uptake at 5 h [1, 8]: 0.52 ± 0.11 %ID/g
tissue uptake at 0.5 h [1, 9]: 0.12 ± 0.05 %ID/g
tissue uptake at 2 h [1, 9]: 0.06 ± 0.01 %ID/g
tissue uptake at 5 h [1, 9]: 0.06 ± 0.01 %ID/g
tissue uptake at 0.5 h [1, 10]: 0.96 ± 0.3 %ID/g
tissue uptake at 2 h [1, 10]: 0.31 ± 0.04 %ID/g
tissue uptake at 5 h [1, 10]: 0.3 ± 0.06 %ID/g
tissue uptake at 0.5 h [1, 11]: 1.88 ± 0.18 %ID/g
tissue uptake at 2 h [1, 11]: 1.01 ± 0.04 %ID/g
tissue uptake at 5 h [1, 11]: 1.07 ± 0.04 %ID/g
tissue uptake at 2 h ([1]; kidneys, 5 MBq per mouse, n=3, read-out: Biodistribution, Kidneys): 1.69 ± 0.09 %ID/g
tissue uptake at 0.5 h [1, 12]: 4.44 ± 0.51 %ID/g
tissue uptake at 5 h [1, 12]: < 2 %ID/g
tissue uptake at 0.5 h [1, 13]: 5.16 ± 0.99 %ID/g
tissue uptake at 2 h [1, 13]: 4.9 ± 0.13 %ID/g
tissue uptake at 5 h [1, 13]: ~1 %ID/g
tissue uptake at 0.5 h [1, 14]: 2.17 ± 0.7 %ID/g
tissue uptake at 2 h [1, 14]: 0.72 ± 0.11 %ID/g
tissue uptake at 5 h [1, 14]: 0.52 ± 0.04 %ID/g
tissue uptake at 0.5 h [1, 15]: 0.66 ± 0.26 %ID/g
tissue uptake at 5 h [1, 15]: 0.28 ± 0.04 %ID/g
tissue uptake at 2 h [1, 16]: 0.35 ± 0.03 %ID/g
tissue uptake at 5 h [1, 16]: 0.39 ± 0.02 %ID/g
tissue uptake at 0.5 h ([1]; pancreas, n=3, read-out: Biodistribution, pancreas): 0.94 ± 0.49 %ID/g
tissue uptake at 0.5 h [1, 17]: 2.28 ± 0.39 %ID/g
tissue uptake at 2 h [1, 17]: 1.23 ± 0.2 %ID/g
tissue uptake at 5 h [1, 17]: 0.97 ± 0.06 %ID/g
tissue uptake at 0.5 h [1, 18]: 3.66 ± 0.87 %ID/g
tissue uptake at 2 h [1, 18]: 2.82 ± 0.28 %ID/g
tissue uptake at 5 h [1, 18]: 1.06 ± 0.18 %ID/g
tissue uptake at 0.5 h [1, 19]: 1.78 ± 0.23 %ID/g
tissue uptake at 2 h [1, 19]: 0.84 ± 0.19 %ID/g
tissue uptake at 5 h [1, 19]: 0.72 ± 0.07 %ID/g
Compound: N=C(N)NCCC[C@@H]1NC(=O)[C@H](CCCCNC(=O)CN2CCN(CC(=O)O)CCN(CC(=O)O)CCN(CC(=O)O)CC2)NC(=O)[C@@H](Cc2ccccc2)NC(=O)[C@H](CC(=O)O)NC(=O)CNC1=O [^44Sc-DOTA-RGD, metal not drawn]
PET/CT distribution of radioactivity (in words) [2]: clearly less accumulation of radioactivity in the liver than ^68Ga-DOTA-RGD
